Reference: the NIST ThermoML archive (doi:10.1016/j.jct.2008.02.005)

Experiment: xn = mol fraction of the nth substance listed
Conditions: 101 kPa, Liquid; for viscosity: Capillary tube (Ostwald / Ubbelohde) method; for speed of sound: Sing-around technique in a fixed-path interferometer

CCCCCCCCO [octan-1-ol] + CCCCCCCC
Conditions | mass density, 298.15 K [kg/m3] | mass density, 303.15 K [kg/m3] | mass density, 308.15 K [kg/m3] | speed of sound, 298.15 K [m/s] | speed of sound, 303.15 K [m/s] | speed of sound, 308.15 K [m/s] | viscosity, 298.15 K [mPa·s]
x1 = 0.0548 | 705.04 | 700.957 | 696.852 | 1177.6 | 1156.9 | 1136.7 | 0.554
x1 = 0.1078 | 711.299 | 707.298 | 703.23 | 1183.3 | 1162.8 | 1142.7 | 0.621
x1 = 0.1526 | 716.736 | 712.733 | 708.68 | 1189.2 | 1168.9 | 1148.9 | 0.679
x1 = 0.2019 | 722.796 | 718.79 | 714.754 | 1196 | 1175.9 | 1156.1 | 0.762
x1 = 0.2516 | 728.888 | 724.91 | 720.901 | 1203.4 | 1183.5 | 1163.6 | 0.839
x1 = 0.3075 | 735.75 | 731.816 | 727.826 | 1212.2 | 1192.3 | 1172.8 | 0.965
x1 = 0.4055 | 747.852 | 743.986 | 740.044 | 1228 | 1208.9 | 1189.7 | 1.222
x1 = 0.5031 | 759.965 | 756.131 | 752.284 | 1245.5 | 1226.6 | 1207.7 | 1.569
x1 = 0.602 | 772.269 | 768.472 | 764.683 | 1263.9 | 1245.2 | 1227 | 2.091
x1 = 0.7158 | 786.456 | 782.773 | 779.057 | 1286.9 | 1268.7 | 1250.9 | 2.991
x1 = 0.803 | 797.369 | 793.787 | 790.122 | 1305.6 | 1287.7 | 1270.1 | 3.986
x1 = 0.8501 | 803.36 | 799.76 | 796.133 | 1315.7 | 1297.9 | 1280.6 | 4.652
x1 = 0.8959 | 808.907 | 805.579 | 801.983 | 1325.7 | 1308.1 | 1290.9 | 5.399
x1 = 0.9509 | 815.733 | 812.572 | 809.022 | 1337.5 | 1320.2 | 1303.2 | 6.441
x1 = 1 | 821.813 | 818.796 | 815.286 | 1348 | 1330.8 | 1314.1 | 7.508

CCCCCCCCO [octan-1-ol] + CCCCCC
Conditions | mass density, 298.15 K [kg/m3] | mass density, 303.15 K [kg/m3] | mass density, 308.15 K [kg/m3] | speed of sound, 298.15 K [m/s] | speed of sound, 303.15 K [m/s] | speed of sound, 308.15 K [m/s] | viscosity, 298.15 K [mPa·s]
x1 = 0.0651 | 668.557 | 663.926 | 659.735 | 1090.1 | 1068.1 | 1046.3 | 0.358
x1 = 0.1109 | 677.728 | 673.192 | 668.685 | 1100 | 1078.1 | 1056.6 | 0.409
x1 = 0.1511 | 685.618 | 681.095 | 676.641 | 1109.9 | 1089.3 | 1066.9 | 0.444
x1 = 0.2052 | 695.979 | 691.566 | 687.129 | 1123.8 | 1102.7 | 1081.6 | 0.53
x1 = 0.2699 | 708.106 | 703.843 | 699.426 | 1142.3 | 1121.4 | 1099.9 | 0.654
x1 = 0.3016 | 713.929 | 709.692 | 705.291 | 1150.4 | 1129.8 | 1109.3 | 0.725
x1 = 0.4013 | 731.693 | 727.596 | 723.487 | 1178.7 | 1158.8 | 1138.9 | 1.023
x1 = 0.5059 | 749.508 | 745.544 | 741.544 | 1209.1 | 1189.6 | 1170.3 | 1.477
x1 = 0.6014 | 765.032 | 761.168 | 757.276 | 1237 | 1218.1 | 1199.2 | 2.057
x1 = 0.7083 | 781.504 | 777.748 | 773.973 | 1268.1 | 1249.8 | 1231.4 | 2.954
x1 = 0.7967 | 794.381 | 790.775 | 787.028 | 1293.2 | 1275.3 | 1257.6 | 3.977
x1 = 0.8463 | 801.415 | 797.955 | 794.319 | 1307.2 | 1289.7 | 1272.1 | 4.666
x1 = 0.9154 | 810.757 | 807.483 | 803.632 | 1326.1 | 1308.4 | 1291.3 | 5.802
x1 = 0.9401 | 814.039 | 810.851 | 807.169 | 1332.7 | 1315.5 | 1298.5 | 6.264
x1 = 1 | 821.813 | 818.796 | 815.286 | 1348 | 1330.8 | 1314.1 | 7.508
